Experimental data from ChEMBL document CHEMBL4414672, “Synthesis of certain benzothieno[3,2-d]pyrimidine derivatives as a selective SIRT2 inhibitors” (Eur J Med Chem, 2020).

Experiments:
Type in all cases: functional
SW-620 = test: Growth inhibition of human SW620 cells at 10^-5 M incubated for 48 hrs by sulforhodamine B assay; details: SW-620, 48 h, read-out: GI
NCI-H460 = test: Growth inhibition of human NCI-H460 cells at 10^-5 M incubated for 48 hrs by sulforhodamine B assay; details: NCI-H460, 48 h, read-out: GI
HOP-62 = test: Growth inhibition of human HOP62 cells at 10^-5 M incubated for 48 hrs by sulforhodamine B assay; details: HOP-62, 48 h, read-out: GI
CAKI-1 = test: Growth inhibition of human Caki1 cells at 10^-5 M incubated for 48 hrs by sulforhodamine B assay; details: CAKI-1, 48 h, read-out: GI
TK-10 = test: Growth inhibition of human TK10 cells at 10^-5 M incubated for 48 hrs by sulforhodamine B assay; details: TK-10, 48 h, read-out: GI
MOLT-4 = test: Growth inhibition of human MOLT4 cells at 10^-5 M incubated for 48 hrs by sulforhodamine B assay; details: MOLT-4, 48 h, read-out: GI
SF-295 = test: Growth inhibition of human SF295 cells at 10^-5 M incubated for 48 hrs by sulforhodamine B assay; details: SF-295, 48 h, read-out: GI
IGROV-1 = test: Growth inhibition of human IGROV1 cells at 10^-5 M incubated for 48 hrs by sulforhodamine B assay; details: IGROV-1, 48 h, read-out: GI
SK-OV-3 = test: Growth inhibition of human SKOV3 cells at 10^-5 M incubated for 48 hrs by sulforhodamine B assay; details: SK-OV-3, 48 h, read-out: GI
A549 = test: Growth inhibition of human A549/ATCC cells at 10^-5 M incubated for 48 hrs by sulforhodamine B assay; details: A549, 48 h, read-out: GI
HCT-116 = test: Growth inhibition of human HCT116 cells at 10^-5 M incubated for 48 hrs by sulforhodamine B assay; details: HCT-116, 48 h, read-out: GI
SR = test: Growth inhibition of human SR cells at 10^-5 M incubated for 48 hrs by sulforhodamine B assay; details: read-out: GI
HCT-15 = test: Growth inhibition of human HCT15 cells at 10^-5 M incubated for 48 hrs by sulforhodamine B assay; details: HCT-15, 48 h, read-out: GI
SK-MEL-5 = test: Growth inhibition of human SK-MEL-5 cells at 10^-5 M incubated for 48 hrs by sulforhodamine B assay; details: SK-MEL-5, 48 h, read-out: GI
DU-145 = test: Growth inhibition of human DU145 cells at 10^-5 M incubated for 48 hrs by sulforhodamine B assay; details: DU-145, 48 h, read-out: GI
RXF 393 = test: Growth inhibition of human RXF393 cells at 10^-5 M incubated for 48 hrs by sulforhodamine B assay; details: RXF 393, 48 h, read-out: GI
U-251 = test: Growth inhibition of human U251 cells at 10^-5 M incubated for 48 hrs by sulforhodamine B assay; details: U-251, 48 h, read-out: GI
UACC-62 = test: Growth inhibition of human UACC62 cells at 10^-5 M incubated for 48 hrs by sulforhodamine B assay; details: UACC-62, 48 h, read-out: GI
LOX IMVI = test: Growth inhibition of human LOXIMVI cells at 10^-5 M incubated for 48 hrs by sulforhodamine B assay; details: read-out: GI
UACC-257 = test: Growth inhibition of human UACC257 cells at 10^-5 M incubated for 48 hrs by sulforhodamine B assay; details: UACC-257, 48 h, read-out: GI
HL-60(TB) = test: Growth inhibition of human HL-60(TB) cells at 10^-5 M incubated for 48 hrs by sulforhodamine B assay; details: HL-60, 48 h, read-out: GI
SNB-75 = test: Growth inhibition of human SNB75 cells at 10^-5 M incubated for 48 hrs by sulforhodamine B assay; details: SNB-75, 48 h, read-out: GI
MDA-MB-435 = test: Growth inhibition of human MDA-MB-435 cells at 10^-5 M incubated for 48 hrs by sulforhodamine B assay; details: MDA-MB-435, 48 h, read-out: GI
HCC 2998 = test: Growth inhibition of human HCC2998 cells at 10^-5 M incubated for 48 hrs by sulforhodamine B assay; details: HCC 2998, 48 h, read-out: GI
786-0 = test: Growth inhibition of human 786-0 cells at 10^-5 M incubated for 48 hrs by sulforhodamine B assay; details: 786-0, 48 h, read-out: GI
SF-539 = test: Growth inhibition of human SF539 cells at 10^-5 M incubated for 48 hrs by sulforhodamine B assay; details: SF-539, 48 h, read-out: GI
Hs-578T = test: Growth inhibition of human Hs 578T cells at 10^-5 M incubated for 48 hrs by sulforhodamine B assay; details: read-out: GI
HOP-92 = test: Growth inhibition of human HOP92 cells at 10^-5 M incubated for 48 hrs by sulforhodamine B assay; details: HOP-92, 48 h, read-out: GI
EKVX = test: Growth inhibition of human EKVX cells at 10^-5 M incubated for 48 hrs by sulforhodamine B assay; details: read-out: GI
COLO 205 = test: Growth inhibition of human COLO205 cells at 10^-5 M incubated for 48 hrs by sulforhodamine B assay; details: COLO 205, 48 h, read-out: GI
M14 = test: Growth inhibition of human M14 cells at 10^-5 M incubated for 48 hrs by sulforhodamine B assay; details: M14, 48 h, read-out: GI
OVCAR-8 = test: Growth inhibition of human OVCAR8 cells at 10^-5 M incubated for 48 hrs by sulforhodamine B assay; details: OVCAR-8, 48 h, read-out: GI
MDA-MB-231 = test: Growth inhibition of human MDA-MB-231 cells at 10^-5 M incubated for 48 hrs by sulforhodamine B assay; details: MDA-MB-231, 48 h, read-out: GI
SK-MEL-28 = test: Growth inhibition of human SK-MEL-28 cells at 10^-5 M incubated for 48 hrs by sulforhodamine B assay; details: SK-MEL-28, 48 h, read-out: GI
T47D = test: Growth inhibition of human T47D cells at 10^-5 M incubated for 48 hrs by sulforhodamine B assay; details: read-out: GI
OVCAR-5 = test: Growth inhibition of human OVCAR5 cells at 10^-5 M incubated for 48 hrs by sulforhodamine B assay; details: OVCAR-5, 48 h, read-out: GI
KM12 = test: Growth inhibition of human KM12 cells at 10^-5 M incubated for 48 hrs by sulforhodamine B assay; details: KM12, 48 h, read-out: GI
NCI-H226 = test: Growth inhibition of human NCI-H226 cells at 10^-5 M incubated for 48 hrs by sulforhodamine B assay; details: NCI-H226, 48 h, read-out: GI

SMILES	inhibition of growth at 10 µM (SW-620) [%]	inhibition of growth at 10 µM (NCI-H460) [%]	inhibition of growth at 10 µM (HOP-62) [%]	inhibition of growth at 10 µM (CAKI-1) [%]	inhibition of growth at 10 µM (TK-10) [%]	inhibition of growth at 10 µM (MOLT-4) [%]	inhibition of growth at 10 µM (SF-295) [%]	inhibition of growth at 10 µM (IGROV-1) [%]	inhibition of growth at 10 µM (SK-OV-3) [%]	inhibition of growth at 10 µM (A549) [%]	inhibition of growth at 10 µM (HCT-116) [%]	inhibition of growth at 10 µM (SR) [%]	inhibition of growth at 10 µM (HCT-15) [%]	inhibition of growth at 10 µM (SK-MEL-5) [%]	inhibition of growth at 10 µM (DU-145) [%]	inhibition of growth at 10 µM (RXF 393) [%]	inhibition of growth at 10 µM (U-251) [%]	inhibition of growth at 10 µM (UACC-62) [%]	inhibition of growth at 10 µM (LOX IMVI) [%]	inhibition of growth at 10 µM (UACC-257) [%]	further results
S=C1Nc2c(sc3ccc(Cl)cc23)C(c2ccc3ccccc3c2)N1 (stereo unspecified)	3.99	6.2	10.1	27.5	-25.5	7.43	3.23	16.8	12.2	7.47	9.94	19.4	2.67	5.24	-6.73	-0.71	7.46	13.9	7.47	1.95	inhibition of growth at 10 µM (HL-60(TB)): -2.53%; inhibition of growth at 10 µM (SNB-75): 26%; inhibition of growth at 10 µM (MDA-MB-435): -2.5%; inhibition of growth at 10 µM (HCC 2998): -16.7%; inhibition of growth at 10 µM (786-0): 4.93%; inhibition of growth at 10 µM (SF-539): 3.23%; inhibition of growth at 10 µM (Hs-578T): 8.86%; inhibition of growth at 10 µM (HOP-92): 27.5%; inhibition of growth at 10 µM (EKVX): 14.6%; inhibition of growth at 10 µM (COLO 205): 0.1%; inhibition of growth at 10 µM (M14): 7.85%; inhibition of growth at 10 µM (OVCAR-8): 8.23%; inhibition of growth at 10 µM (MDA-MB-231): 23%; inhibition of growth at 10 µM (SK-MEL-28): -2.16%; inhibition of growth at 10 µM (T47D): 22.5%; inhibition of growth at 10 µM (OVCAR-5): 5.36%; inhibition of growth at 10 µM (KM12): -6.6%; inhibition of growth at 10 µM (NCI-H226): 20.6%
O=C1/C(=C\c2cccc([N+](=O)[O-])c2)Sc2ccc(Cl)cc21	2.49	-5.14	-0.47	-4.55	-12.1	2.66	-3.16	19.9	5.38	-6.89	45.9	54.8	6.13	8.13	-3.94	15.7	13.8	29.5	8.68	-6.4	inhibition of growth at 10 µM (HL-60(TB)): -10.8%; inhibition of growth at 10 µM (SNB-75): 12.3%; inhibition of growth at 10 µM (MDA-MB-435): 35.4%; inhibition of growth at 10 µM (HCC 2998): -36.5%; inhibition of growth at 10 µM (786-0): -1.44%; inhibition of growth at 10 µM (SF-539): -3.16%; inhibition of growth at 10 µM (Hs-578T): -8.12%; inhibition of growth at 10 µM (HOP-92): 42.7%; inhibition of growth at 10 µM (EKVX): 4.33%; inhibition of growth at 10 µM (COLO 205): -6.01%; inhibition of growth at 10 µM (M14): 4.61%; inhibition of growth at 10 µM (OVCAR-8): 0.87%; inhibition of growth at 10 µM (MDA-MB-231): 9.23%; inhibition of growth at 10 µM (SK-MEL-28): -11.7%; inhibition of growth at 10 µM (T47D): 13.1%; inhibition of growth at 10 µM (OVCAR-5): -1.89%; inhibition of growth at 10 µM (KM12): -2.29%; inhibition of growth at 10 µM (NCI-H226): 5.97%
